Target: T1, sEH (Homo sapiens, UniProt P34913)
T1 sequence (P34913 1-555): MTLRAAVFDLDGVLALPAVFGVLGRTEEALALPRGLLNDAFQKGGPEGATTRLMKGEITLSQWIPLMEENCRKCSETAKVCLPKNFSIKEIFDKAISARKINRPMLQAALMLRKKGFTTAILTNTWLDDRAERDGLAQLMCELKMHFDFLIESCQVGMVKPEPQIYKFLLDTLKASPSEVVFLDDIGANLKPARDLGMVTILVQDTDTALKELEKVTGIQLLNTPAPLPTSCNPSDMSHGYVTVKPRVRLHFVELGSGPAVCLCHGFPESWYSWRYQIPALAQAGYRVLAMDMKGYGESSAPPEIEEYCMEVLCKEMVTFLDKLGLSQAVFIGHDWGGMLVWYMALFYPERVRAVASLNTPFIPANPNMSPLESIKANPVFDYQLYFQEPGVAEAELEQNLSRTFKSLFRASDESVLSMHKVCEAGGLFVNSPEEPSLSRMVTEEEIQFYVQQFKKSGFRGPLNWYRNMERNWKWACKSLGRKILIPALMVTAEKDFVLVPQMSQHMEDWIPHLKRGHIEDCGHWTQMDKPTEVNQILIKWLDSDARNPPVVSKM
Format: biochemical
Design: purchased Cayman Chemicals #10011671
Conditions: 100 nM
Protocol: FIGURE 3 Effects of NFA on sEH activity. […] Data are the mean ± SEM of n = 3–7. […] The cells were lysed, and hydrolase activity was measured by Epoxy Fluor 7 lysis. […] Statistical significance was calculated by one-way ANOVA with Bonferroni post-test and multiple comparisons against the DMSO control.

For `CCCCCCCC/C=C\CCCCCCCC(=O)O` [OA, oleic acid, reference compound], which “inhibition of recombinant sEH” value is on record?
Its value is “strong suppressive effect”.

Reference: PMC8637440, “Structural Modifications Yield Novel Insights Into the Intriguing Pharmacodynamic Potential of Anti-inflammatory Nitro-Fatty Acids” (Frontiers in Pharmacology, 2021)
